The values below come from PMC5648829 (Scientific Reports, 2017).

Each structure is given as a SMILES string. pEC50: −log10 of the molar value. Where a SMILES comes first, the peptide text is derived from it.

One data set concerns sputum neutrophils. Set-up: method as in PMID 27806191. The settings on record: cystic fibrosis patients; cited from earlier work.
The subject of data set [1] is asthma bronchial allergen challenge. Details: method as in PMID 25018015. The settings on record: asthma bronchial allergen challenge trial; cited from earlier work.
For data set [2], the system named is human neutrophils. The data set can be described thus: ROS generation in human neutrophils. The settings on record: up to mM concentrations. It counts as cell-based. As to the method:
Purified human neutrophils were plated in RPMI + FCS (5%) in 96-well cell culture plates (100,000 cells/well). Dihydrorhodamine 123 (SIGMA) was added at a final concentration of 3 µM together with PGP, Ac-PGP and fMLP (SIGMA) at graded concentrations and incubated for 30 min at 37 °C, 5% CO2 and 90% humidity. […] Amount of generated ROS is given as GMFI (sample)/GMFI (unstimulated control).

Data set [3] in a line: PGP degradation assay in BALF ex-vivo (LC-MS/MS). It counts as in vitro ADME, mouse. As for the experimental part: 200 µl of BALF were spiked with PGP and Ac-PGP at the final concentration of 10 nM. […] After incubation, samples were filtered (Amicon Ultra-0.5, Membrane Ultracel-30, PMNL 30 kD) by centrifugation (3 min at 10,000 × g). Filtered samples were transferred to vials for liquid chromatography tandem mass spectrometry (LC-MS/MS) analysis. The LC system consisted of an Acquity UPLC I-Class interfaced with a Xevo-TQS triple quadruple MS (Waters). […] PGP was monitored with MRM m/z transitions of 270.1 > 173.1 (quantifier) and 270.1 > 70.1 and 270.1 > 116.1 (qualifiers). Ac-PGP was monitored with m/z transitions of 312.2 > 112.1 (quantifier) and 312.2 > 116.1 and 312.2 > 140.1 (qualifiers).

For data set [4], the system named is human neutrophils. The data set can be described thus: Human neutrophil shape change assay. It counts as cell-based. The settings on record: up to 100 μM. As for the experimental part: Neutrophils were purified by Ficoll density gradient centrifugation from human blood and incubated with graded concentrations of PGP, Ac-PGP or the known neutrophil chemoattractant GROα in assay buffer containing BSA (0.1%) in PBS for 10 min at 37 °C, 5% CO2 and 90% humidity. Cells were then fixed and shape change analyzed by flow cytometry.

A further data set has as its target T1, LTA4H (Homo sapiens, UniProt P09960).
T1 sequence (P09960 1-611): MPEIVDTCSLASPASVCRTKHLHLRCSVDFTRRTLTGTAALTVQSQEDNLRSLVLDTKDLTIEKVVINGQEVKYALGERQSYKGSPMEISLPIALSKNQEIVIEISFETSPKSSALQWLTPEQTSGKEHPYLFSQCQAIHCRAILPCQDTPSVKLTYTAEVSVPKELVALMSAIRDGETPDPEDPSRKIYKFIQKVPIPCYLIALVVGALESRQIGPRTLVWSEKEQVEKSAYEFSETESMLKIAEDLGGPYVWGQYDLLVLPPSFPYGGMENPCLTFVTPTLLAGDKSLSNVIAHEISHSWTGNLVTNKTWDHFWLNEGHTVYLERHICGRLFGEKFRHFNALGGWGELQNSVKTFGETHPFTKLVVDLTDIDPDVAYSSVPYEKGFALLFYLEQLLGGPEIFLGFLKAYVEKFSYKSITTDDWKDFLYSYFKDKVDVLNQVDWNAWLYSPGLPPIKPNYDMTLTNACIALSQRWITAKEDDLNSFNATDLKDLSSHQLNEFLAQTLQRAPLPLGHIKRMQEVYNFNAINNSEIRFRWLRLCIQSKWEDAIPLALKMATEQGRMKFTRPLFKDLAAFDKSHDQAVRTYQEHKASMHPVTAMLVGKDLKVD
The data set can be described thus: PGP degradation assay in human blood. It counts as cell-based. Set-up: Fresh blood was collected in heparinized tubes by venipuncture from volunteers; from tissue; host or cells: fresh human whole blood from volunteers, diluted 1:3 in RPMI. The settings on record: untreated and LPS stimulated blood, 24 h at 37 °C. As for the experimental part: Fresh blood was collected in heparinized tubes by venipuncture from volunteers from the Novartis Blood Donor Center, Basel. The blood was diluted 1:3 in Roswell Park Memorial Institute (RPMI) containing HEPES (0.025 M). […] PGP and LPS were added at final concentrations of 2 µg/ml each and incubated up to 24 h at 37 °C, 5% CO2 and 90% humidity before samples were collected for LC-MS/MS analysis.

Data set [5] concerns human neutrophils. As to the kind of experiment: Human neutrophil calcium flux assay. To be noted: up to mM concentrations. It counts as cell-based. As for the experimental part: Purified human neutrophils were incubated in Calcium 5 loading buffer (Molecular Devices) containing Probenecid (2.5 mM, SIGMA) at 37 °C, 5% CO2 and 90% humidity for 1 h. 20 µl of the cell suspension were then transferred to a black 384-well plate with clear bottom and centrifuged at 100 g for 4 min. Test compounds PGP, Ac-PGP and fMLP (SIGMA) were prepared at graded concentrations in HBSS containing HEPES (20 mM). Fluorescence was measured in FLIPR Tetra reader (Molecular Devices) every second before and after the addition of 5 µl of compounds dilutions. The calculated F index is the difference between the maximum signal and the average baseline signal, divided by the average baseline signal.

Data set [6] has as its system neutrophil influx into dorsal air-pouch. As to the kind of experiment: Air-pouch model of acute inflammation. Type of data set: in vivo, mouse. To be noted: for PGP concentration in air-pouch exudate: PGP 500 μg/mouse. As to the method:
Air-pouches were formed by subcutaneous injection of 5 ml air through a 0.22 μm filter on the backs of female LTA4H KO or wt mice. The patency of the cavity was maintained by a further 3 ml injection on day 3. Six days after the initial injection of air, LPS at 10 µg/animal and PGP, Ac-PGP, at different concentrations up to 500 µg/animal were injected into the air pouches. […] An incision was made on the top of the pouch and the injected lavage fluid pipetted out into an eppendorf tube. An aliquot of air pouch lavage fluid was used to determine total cell counts on an Advia 120® Haematology Analyser. To determine differential cell counts, cytospins were prepared for all pouch fluid samples. The cytospins were air dried prior to staining with DiffQwik differential staining solutions. Differential cell counts were performed manually (x200 magnification) to determine the percentage of neutrophil and non-neutrophil cell populations in each sample.

Data set [7] relates to human neutrophils. Details: method as in earlier work. To be noted: ref 27 Haddox et al.; read-out: EC50 chemotaxis of human neutrophils; cited from earlier work.
Data set [8] has as its system neutrophil influx into lungs. As to the kind of experiment: Stimulation of lungs with PGP and Ac-PGP (intra-tracheal). It counts as in vivo, mouse. To be noted: PGP up to 500 μg intra-tracheal, wt or LTA4H KO mice, 24 h. As for the experimental part:
PGP or Ac-PGP in increasing doses up to 500 ug per mouse were applied by intra-tracheal administration in 50 µl PBS to female LTA4H KO or wild type mice. After 24 h, the mice were euthanized and BALF was collected by cannulating the trachea with a catheter and lavaging the lungs 3 times with 0.4 ml cold PBS. The lavage fluid was then centrifuged and the cells analyzed by flow cytometry. Cell supernatants were used for analysis of MPO and cytokine content in BALF.

For data set [9], the system named is human neutrophils. The data set can be described thus: Human neutrophil chemotaxis assay. Type of data set: cell-based. The settings on record: graded concentrations up to mM range, 90 min at 37 °C. As to the method: Purified human neutrophils were labeled with calcein-AM (Fluka, Buchs, Switzerland). Test compounds (PGP, Ac-PGP, RTR, and Ac-RTR) or IL-8 (Sigma) as positive chemoattractant control were diluted in RPMI containing BSA (0.1%) and added at graded concentrations into the wells of a 96-well ChemoTX plate (3.2 mm diameter, 5 µm pore size; NeuroProbe, Gaithersburg, MD). Labeled cells (50,000 per well) were added onto the filters above the wells that received the test compounds. Plates were incubated for 90 min at 37 °C. The filters were removed and fluorescence in the receiving wells was measured using a SpectraMAX Gemini EM instrument (Molecular Devices, Sunnyvale, CA; λex = 485 nm; λem = 538 nm). The chemotactic index was measured as the ratio of fluorescence in the test wells and in control (buffer only) wells.

Consider `O=C(O)c1ccc(CN2C[C@@H]3C[C@H]2CN3Cc2ccc(Oc3ccc(-c4ncco4)cc3)cc2)cc1` [Acebilustat], for which the “reduction of sputum neutrophils” value in the data set with sputum neutrophils is listed as 65%.
For the compound `CC(=O)NC1C[C@H]2CC[C@@H](C1)N2Cc1ccc(Oc2nc3ncccc3s2)cc1` (some centres unmarked) [JNJ-40929837], in data set [1], the clinical efficacy result is recorded as “did not show efficacy”.
One may read the pEC50 as the EC50 on a negative log10 scale, so that one unit is a factor of ten. Turning to `O=C(NCC(=O)N1CCC[C@H]1C(=O)O)[C@@H]1CCCN1` [PGP, H-Pro-Gly-Pro] (H-Pro-Gly-Pro-OH), the ROS production result in the data set with human neutrophils [2] is reported as “neither PGP nor Ac-PGP induced”. The “PGP level after spiking into BALF” value in data set [3] (BALF from LPS challenged wt mice, PGP 10 nM, 4 h at 37 °C) is recorded as “undetectable levels”. The PGP still present entry in data set [3] (exudate (BALF) of LTA4H KO mice, after 24 h) is “over 80%”. In addition, the “neutrophil shape change response” value in the data set on human neutrophils [4] is listed as “no response”. Moreover, the “Degradation of PGP in human blood” value on LTA4H is recorded as “complete disappearance”. In addition, in the data set on human neutrophils [5], the “induction of Ca2+ flux” value was “neither PGP nor Ac-PGP induced”. Also, the “cell influx in air-pouch” value in data set [6] (500 μg PGP, LTA4H KO mice, 24 h) is on record as “failed to detect significant cell influx”. The “PGP concentration in air-pouch exudate” value is on record as “approximately 1 µg/ml” in data set [6] (LTA4H KO mice, 1 h after injection); “no PGP was detectable” in data set [6] (LTA4H KO mice, 4 h and 24 h after injection). For the same compound, the “cell numbers (neutrophil influx) in air-pouch” value in [6] (PGP up to 500 μg per air-pouch, Balb/c mice, 4 h) is recorded as “did not show elevated cell numbers compared to saline control”. For the same compound, in [6] (mice pre-treated with 30 mg/kg DG-051 before PGP injection, 4 h), the “neutrophil influx in air-pouch” value is on record as “unable to detect neutrophil influx”. For the same compound, the negative-log EC50 (pEC50) with human neutrophils [7] is 1.82. In data set [8], the “influx of neutrophils by flow cytometry of BALF cells” value is on record as “neither able to detect influx of neutrophils”. Moreover, in data set [8] (versus PBS control), the “myeloperoxidase (MPO) in BALF” value is listed as “nor elevation of myeloperoxidase (MPO) beyond the PBS control”. In the data set with human neutrophils [9], the neutrophil chemotaxis entry was “no significant increase in chemotaxis”.
